Columns and labels:
Experiment in all cases: selective drug sensitivity score (sDSS, relative to normal bone marrow) (sDSS (score)); higher = more potent and effective on the cell line relative to normal bone marrow cells
Settings in all cases: 72 h
[1] = system: ALL-SIL
[2] = system: COG-LL-317
[3] = system: COG-LL-332h
[4] = system: DND-41
[5] = system: HAL-01
[6] = system: JURKAT
[7] = system: KASUMI-10
[8] = system: KASUMI-2
[9] = system: KASUMI-9
[10] = system: KOPN-8
[11] = system: LC4-1
[12] = system: MHH-CALL-2
[13] = system: MHH-CALL-3
[14] = system: MHH-CALL-4
[15] = system: MOLT-4
[16] = system: NALL-1
[17] = system: NALM-6
[18] = system: PEER
[19] = system: PF-382
[20] = system: REH
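Further: ALL cell lines in 384-well plates, five doses spanning 10,000-fold, each plate scaled between vehicle and 100 µmol/L benzalkonium chloride controls, sDSS an adapted area-under-curve metric.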

SMILES	selective drug sensitivity score [1]	selective drug sensitivity score [2]	selective drug sensitivity score [3]	selective drug sensitivity score [4]	selective drug sensitivity score [5]	selective drug sensitivity score [6]	selective drug sensitivity score [7]	selective drug sensitivity score [8]	selective drug sensitivity score [9]	selective drug sensitivity score [10]	selective drug sensitivity score [11]	selective drug sensitivity score [12]	selective drug sensitivity score [13]	selective drug sensitivity score [14]	selective drug sensitivity score [15]	selective drug sensitivity score [16]	selective drug sensitivity score [17]	selective drug sensitivity score [18]	selective drug sensitivity score [19]	selective drug sensitivity score [20]
Cn1nccc1Nc1nccc(-c2ccn([C@H](CO)c3ccc(Cl)c(F)c3)c(=O)c2)n1 [Ravoxertinib] (top concentration 10000 nM)	-3.2	4.8	4.1	4.5	1.9	-0.8	5.2	4.2	5.3	13.6	7	8.4	9.7	11	-1.2	10	4	-0.3	1.2	1.2
C/C=C1\NC(=O)[C@H]2CSSCC/C=C/[C@H](CC(=O)N[C@H](C(C)C)C(=O)N2)OC(=O)[C@H](C(C)C)NC1=O [Romidepsin] (top concentration 1000 nM)	3.26	0.76	1.36	4.76	-17.5	2.06	1.86	5.06	3.16	3.16	1.76	6.76	9.76	3.06	1.76	2.06	2.66	2.06	1.96	1.26
CNCc1ccc(-c2[nH]c3cc(F)cc4c3c2CCNC4=O)cc1 [Rucaparib] (top concentration 10000 nM)	0.22	6.52	1.52	-0.38	4.32	-0.58	1.12	3.02	2.72	5.12	0.32	9.02	13.8	5.92	-0.58	-0.58	0.62	-0.08	-0.58	1.52
CC(C)(C)c1cnc(CSc2cnc(NC(=O)C3CCNCC3)s2)o1 [SNS-032] (top concentration 10000 nM)	-3.84	1.66	-3.54	-2.44	-8.04	-6.54	-2.64	-5.44	-0.54	-2.54	-3.24	2.96	-4.44	-1.04	-4.84	-4.94	-2.44	-4.94	-5.34	-5.44
Cc1c(C(=O)Nc2ccc(N3C[C@@H](C)O[C@@H](C)C3)nc2)cccc1-c1ccc(OC(F)(F)F)cc1 [Sonidegib] (top concentration 10000 nM)	1.08	-1.02	-1.42	5.08	-3.92	2.48	1.38	-1.42	1.48	10.5	1.08	7.48	-3.92	2.28	1.08	7.58	0.98	0.88	2.28	0.98
CNC(=O)c1cc(Oc2ccc(NC(=O)Nc3ccc(Cl)c(C(F)(F)F)c3)cc2)ccn1 [Sorafenib] (top concentration 1000 nM)	0	0	0.1	0	2.9	0.4	12.2	0	0	2	0	0.3	0	0	0	0	0.2	0.1	1.3	0.2
CN1CCN(c2nc(C3=C(c4c[nH]c5ccccc45)C(=O)NC3=O)c3ccccc3n2)CC1 [Sotrastaurin] (top concentration 10000 nM)	2.7	0	2	0.3	2.3	-1.7	7.7	2.8	0.5	6.4	1.7	9.9	5.8	4.2	-1.7	1.9	0.8	4	-1.9	4.8
Cc1cc(C(C)Nc2ccccc2)c2nc(N3CCOCC3)cc(=O)n2c1 (stereo not given) [TGX-221] (top concentration 10000 nM)	-1.64	-1.64	-1.54	-1.64	7.86	-0.74	-1.64	-1.64	1.16	-1.64	-1.64	5.16	-1.64	-1.44	0.66	-0.44	3.56	-0.74	-0.84	-0.84
Cc1nc(-c2cn3c(n2)-c2ccc(-c4cnn(C(C)(C)C(N)=O)c4)cc2OCC3)n(C(C)C)n1 [Taselisib] (top concentration 1000 nM)	1.2	0.8	0.7	-4.3	11.1	-2.6	1.7	4	6.3	-0.9	-2.2	6.9	-4.3	7.9	3	-1.7	9.5	-4.3	3	5.7
Cn1cncc1[C@@](N)(c1ccc(Cl)cc1)c1ccc2c(c1)c(-c1cccc(Cl)c1)cc(=O)n2C [Tipifarnib] (top concentration 10000 nM)	11.1	15.3	9.3	2.8	6.3	3.6	3	-1.3	3.1	11.2	1.6	7.8	7	6.6	6.8	1.4	10.6	10	13	14
CN(C)CCOc1ccc(/C(=C(/CCCl)c2ccccc2)c2ccccc2)cc1 [Toremifene] (top concentration 10000 nM)	1.28	-0.22	0.98	6.78	3.18	-0.42	-5.42	5.68	0.58	0.98	1.08	9.68	-2.52	0.48	2.58	8.98	1.68	1.28	1.08	-1.52
CC(=O)Nc1cccc(-n2c(=O)n(C3CC3)c(=O)c3c(Nc4ccc(I)cc4F)n(C)c(=O)c(C)c32)c1 [Trametinib] (top concentration 250 nM)	-8.04	-7.74	-6.04	2.16	2.36	-7.94	-5.34	5.86	-1.14	4.36	2.46	2.96	9.46	0.06	-4.54	-4.84	2.86	-4.44	-5.44	-8.04
O=C(CCCCCCC(=O)Nc1ccc([C@H]2O[C@@H](CSc3nc(-c4ccccc4)c(-c4ccccc4)o3)C[C@@H](c3ccc(CO)cc3)O2)cc1)NO [Tubacin] (top concentration 10000 nM)	9.84	10.3	14	5.54	2.14	4.14	4.54	4.14	6.54	16.9	7.14	7.74	17.8	7.84	8.34	7.54	9.94	7.14	8.14	7.44
CN1CCc2c(c3ccccc3n2Cc2ccc(C(=O)NO)cc2)C1 [Tubastatin_A] (top concentration 10000 nM)	3.36	1.96	1.46	2.66	1.76	0.36	2.46	7.06	8.86	9.86	6.76	3.76	18	-0.14	-0.04	8.76	1.36	3.36	0.76	5.86
C[C@]1(c2nc3c(C(N)=O)cccc3[nH]2)CCCN1 [Veliparib] (top concentration 10000 nM)	-4.18	1.72	-1.48	-4.18	1.02	-3.28	-1.08	2.82	1.72	5.52	-4.18	5.02	0.42	6.72	-2.88	-4.18	-2.48	-4.18	-4.08	-4.18
CS(=O)(=O)c1ccc(C(=O)Nc2ccc(Cl)c(-c3ccccn3)c2)c(Cl)c1 [Vismodegib] (top concentration 10000 nM)	0.36	-1.14	-1.14	2.76	-1.14	-1.14	-1.14	3.96	-0.74	6.76	5.26	2.86	-1.14	0.16	-0.44	1.06	-1.14	-0.94	-1.14	-1.14

Source: the supplement of paper PMC8967900
